Earlier results as cited in patent EP1219295A1, “Controlled release formulation of valproate” (Abbott Laboratories, priority 2000, dated 2002).
Like-named read-outs stand apart in the source and are kept apart here.

Legend:
[1] = in vivo

Row | Structure (SMILES) | patients affected by GI irritation [1] | half life (in adults) | half life (in children)
1 | CCCC(CCC)C(=O)O [valproate] | up to one third | – | –
2 | CCCC(CCC)C(=O)O [valproic acid, 2-Propylpentanoic acid] | – | six and seventeen | four and fourteen
